Assay results reported in ChEMBL document CHEMBL5506053, “Explorations of Agonist Selectivity for the α9* nAChR with Novel Substituted Carbamoyl/Amido/Heteroaryl Dialkylpiperazinium Salts and Their Therapeutic Implications in Pain and Inflammation” (J Med Chem, 2024).
Active and inactive are the calls of the source.

How the values were obtained:
[1] = molecular target: T1, Neuronal acetylcholine receptor subunit alpha-7 (Homo sapiens, UniProt P36544); assay: Agonist activity at human alpha7 nAChR expressed as xenopus laevis oocytes assessed as increase in receptor desensitization by measuring fold change in peak current response at 30 uM incubated for 120 secs presence of PNU-120596 by two-electrode voltage-clamp electrophysiology method relative to acetylcholine; format: cell-based; conditions: Oocyte, filed as agonist, time 120.0 sec
[2] = molecular target: T2, Neuronal acetylcholine receptor; alpha3/beta4 (Homo sapiens) (UniProt P30926+P32297); assay: Inhibition of acetylcholine induced response in human alpha3beta4 nAChR expressed in xenopus laevis oocytes assessed as fold change at 100 uM preincubated with 3 uM acetylcholine followed by compound administration for 12 sec and measured 181 sec post washout by two-electrode voltage-clamp electrophysiology method relative to acetylcholine alone; format: cell-based; conditions: Oocyte
[3] = molecular target: T1, Neuronal acetylcholine receptor subunit alpha-7; assay: Ratio for agonist activity at human alpha7 nAChR expressed as xenopus laevis oocytes assessed as increase in receptor desensitization by measuring fold change in peak current response to agonist activity at human alpha7 nAChR expressed as xenopus laevis oocytes assessed as increase in receptor desensitization by measuring fold change in peak current response in presence of PNU-120596; format: cell-based; conditions: Oocyte
[4] = molecular target: T3, Neuronal acetylcholine receptor subunit alpha-9 (Homo sapiens, UniProt Q9UGM1); assay: Agonist activity at human alpha9 nAChR expressed as xenopus laevis oocytes assessed as increase in receptor desensitization by measuring fold change in maximum response (Imax) measured after 120 secs by two-electrode voltage-clamp electrophysiology method relative to acetylcholine; format: cell-based; conditions: Oocyte, filed as agonist, time 120.0 sec
[5] = molecular target: T1, Neuronal acetylcholine receptor subunit alpha-7; assay: Agonist activity at human alpha7 nAChR expressed as xenopus laevis oocytes assessed as increase in receptor desensitization by measuring fold change in maximum response (Imax) measured after 120 secs by two-electrode voltage-clamp electrophysiology method relative to acetylcholine; format: cell-based; conditions: Oocyte, filed as agonist, time 120.0 sec
Oocyte [6] = assay: Inhibition of acetylcholine induced response in mouse muscle alpha1beta1epsilondelta nAChR expressed in xenopus laevis oocytes assessed as fold change at 30 uM preincubated with 3 uM acetylcholine followed by compound administration for 12 sec and measured 181 sec post washout by two-electrode voltage-clamp electrophysiology method relative to acetylcholine alone; format: cell-based
[7] = molecular target: T2, Neuronal acetylcholine receptor; alpha3/beta4 (Homo sapiens); assay: Agonist activity at human alpha3beta4 nAChR expressed in xenopus laevis oocytes at 100 uM measured after 120 secs by two-electrode voltage-clamp electrophysiology method relative to control; format: cell-based; conditions: Oocyte, time 120.0 sec
[8] = molecular target: T4, Neuronal acetylcholine receptor; alpha9/alpha10 (Homo sapiens) (UniProt Q9UGM1+Q9GZZ6); assay: Partial agonist activity at human alpha9alpha10 nAChR expressed as xenopus laevis oocytes assessed as increase in receptor desensitization by measuring fold change in maximum response (Imax) measured after 120 secs by two-electrode voltage-clamp electrophysiology method relative to acetylcholine; format: cell-based; conditions: Oocyte, filed as partial agonist, time 120.0 sec
Oocyte [9] = assay: Agonist activity at mouse muscle alpha1beta1epsilondelta nAChR expressed in xenopus laevis oocytes at 30 uM measured after 120 secs by two-electrode voltage-clamp electrophysiology method relative to control; format: cell-based; conditions: time 120.0 sec
[10] = molecular target: T5, Neuronal acetylcholine receptor; alpha4/beta2 (Homo sapiens) (UniProt P17787+P43681); assay: Inhibition of acetylcholine induced response in human alpha4beta2 nAChR expressed in xenopus laevis oocytes assessed as fold change at 30 uM preincubated with 3 uM acetylcholine followed by compound administration for 12 sec and measured 181 sec post washout by two-electrode voltage-clamp electrophysiology method relative to acetylcholine alone; format: cell-based; conditions: Oocyte
[11] = molecular target: T5, Neuronal acetylcholine receptor; alpha4/beta2 (Homo sapiens); assay: Agonist activity at human alpha4beta2 nAChR expressed in xenopus laevis oocytes at 30 uM measured after 120 secs by two-electrode voltage-clamp electrophysiology method relative to control; format: cell-based; conditions: Oocyte, time 120.0 sec
[12] = human, caco-2, 2 h
Description: Apparent permeability across apical to basolateral side in human Caco-2 cells at 5 ug/ml measured after 2 hrs by UPLC-MS/MS analysis

[13] = molecular target: Neuronal acetylcholine receptor; alpha9/alpha10 (Homo sapiens, UniProt Q9GZZ6+Q9UGM1); assay: Agonist activity at alpha9alpha10 nAChR (unknown origin); format: protein-complex assay
[14] = molecular target: T3, Neuronal acetylcholine receptor subunit alpha-9; assay: Agonist activity at alpha9 nAChR (unknown origin)
[15] = molecular target: T4, Neuronal acetylcholine receptor; alpha9/alpha10 (Homo sapiens); assay: Agonist activity at alpha9alpha10 nAChR (unknown origin) assessed as fold change in maximum response (Imax) relative to acetylcholine; format: protein-complex assay; conditions: filed as agonist
[16] = molecular target: T4, Neuronal acetylcholine receptor; alpha9/alpha10 (Homo sapiens); assay: Agonist activity at human alpha9alpha10 nAChR expressed as xenopus laevis oocytes assessed as increase in receptor desensitization by measuring fold change in maximum response (Imax) measured after 120 secs by two-electrode voltage-clamp electrophysiology method relative to acetylcholine; format: cell-based; conditions: Oocyte, filed as agonist, time 120.0 sec
[17] = molecular target: T3, Neuronal acetylcholine receptor subunit alpha-9; assay: Partial agonist activity at human alpha9 nAChR expressed as xenopus laevis oocytes assessed as increase in receptor desensitization by measuring fold change in maximum response (Imax) measured after 120 secs by two-electrode voltage-clamp electrophysiology method relative to acetylcholine; format: cell-based; conditions: Oocyte, filed as partial agonist, time 120.0 sec
Mus musculus [18] = assay: Antinociceptive activity in complete freund's adjuvant induced inflammatory pain in C57BL/6J mouse model assessed as increase in mechanical pain threshold at 10 mg/kg, ip pretreated with CFA for 3 days followed by compound treatment and measured after 1 to 24 hrs; format: functional, organism-based; conditions: time 1-24 hrs
[19] = Apparent permeability across apical to basolateral side in human Caco-2 cells at pH 6.8 at 5 ug/ml measured after 2 hrs by UPLC-MS/MS analysis; format: ADME, cell-based; conditions: caco-2, pH 6.8, 2 h, dose 5 µg/ml
Mus musculus [20] = assay: Antinociceptive activity in complete freund's adjuvant induced inflammatory pain in C57BL/6J mouse model assessed as increase in mechanical pain threshold at 10 mg/kg, ip pretreated with CFA for 3 days followed by compound treatment and measured after 5 days; format: functional, organism-based; conditions: time 5.0 day
[21] = Apparent permeability across apical to basolateral side in human Caco-2 cells at pH 5 at 5 ug/ml measured after 2 hrs by UPLC-MS/MS analysis; format: ADME, cell-based; conditions: caco-2, pH 5, 2 h, dose 5 µg/ml
Mus musculus [22] = assay: Antinociceptive activity in complete freund's adjuvant induced inflammatory pain in alpha7 nAChR knockout C57BL/6J mouse model assessed as increase in mechanical pain threshold at 10 mg/kg, ip pretreated with CFA for 3 days followed by compound treatment and measured after 6 hrs; format: functional, organism-based
[23] = Metabolic stability in pooled BALB/c mouse plasma at 1 uM measured after 0 to 120 mins by UPLC-MS/MS analysis; format: ADME, cell-free; conditions: time 0-120 min
Mus musculus [24] = assay: Antinociceptive activity in complete freund's adjuvant induced inflammatory pain in C57BL/6J mouse model harboring wild type alpha7 nAChR assessed as increase in mechanical pain threshold at 10 mg/kg, ip pretreated with CFA for 3 days followed by compound treatment and measured after 6 hrs; format: functional, organism-based
Mus musculus [25] = assay: Antiinflammatory activity in CFA-treated C57BL/6J mouse model assessed as reduction in paw edema at 10 mg/kg, ip measured after 6 hrs
Mus musculus [26] = assay: Antinociceptive activity in complete freund's adjuvant induced inflammatory pain in C57BL/6J mouse model assessed as increase in mechanical pain threshold at 10 mg/kg, ip pretreated with CFA for 3 days followed by compound treatment and measured after 72 hrs; format: functional, organism-based
[27] = Apparent permeability across basolateral to apical side in human Caco-2 cells at pH 6.8 at 5 ug/ml measured after 2 hrs by UPLC-MS/MS analysis; format: ADME, cell-based; conditions: caco-2, pH 6.8, 2 h, dose 5 µg/ml
[28] = Apparent permeability across basolateral to apical side in human Caco-2 cells at pH 7.4 at 5 ug/ml measured after 2 hrs by UPLC-MS/MS analysis; format: ADME, cell-based; conditions: caco-2, pH 7.4, 2 h, dose 5 µg/ml
Mus musculus [29] = assay: Antinociceptive activity in sham-treated C57BL/6J mouse model assessed as effect on von Frey response at 10 mg/kg, ip measured after 5 days; format: functional, organism-based; conditions: time 5.0 day
[30] = Apparent permeability across apical to basolateral side in human Caco-2 cells at pH 7.4 at 5 ug/ml measured after 2 hrs by UPLC-MS/MS analysis; format: ADME, cell-based; conditions: caco-2, pH 7.4, 2 h, dose 5 µg/ml
THP-1 [31] = assay: Induction of IL-1beta release in LPS primed monocytic human THP-1 cells at 10 uM primed with LPS for 5 hrs followed by compound addition and further incubated for 40 mins by ELISA; format: functional, cell-based
[32] = Plasma protein binding in human; format: ADME, cell-free
Mus musculus [33] = assay: Antinociceptive activity in complete freund's adjuvant induced inflammatory pain in C57BL/6J mouse model assessed as increase in mechanical pain threshold at 2 mg/kg, ip pretreated with CFA for 3 days followed by compound treatment and measured after 6 to 24 hrs; format: functional, organism-based; conditions: time 6-24 hrs
[34] = Toxicity in C57BL/6J mouse assessed as effect on locomotor activity at 10 mg/kg, ip measured after 6 hrs; format: organism-based; conditions: in vivo
[35] = Apparent permeability across basolateral to apical side in human Caco-2 cells at pH 5 at 5 ug/ml measured after 2 hrs by UPLC-MS/MS analysis; format: ADME, cell-based; conditions: caco-2, pH 5, 2 h, dose 5 µg/ml
[36] = Metabolic stability in pooled BALB/c mouse plasma assessed as compound remaining at 1 uM measured after 0 to 120 mins by UPLC-MS/MS analysis; format: ADME, cell-free; conditions: time 0-120 min
THP-1 [37] = assay: Cytotoxicity against monocytic human THP-1 cells assessed as effect on lactate dehydrogenase activity in supernatant; format: toxicity, cell-based

T1 sequence (P36544 whole entry): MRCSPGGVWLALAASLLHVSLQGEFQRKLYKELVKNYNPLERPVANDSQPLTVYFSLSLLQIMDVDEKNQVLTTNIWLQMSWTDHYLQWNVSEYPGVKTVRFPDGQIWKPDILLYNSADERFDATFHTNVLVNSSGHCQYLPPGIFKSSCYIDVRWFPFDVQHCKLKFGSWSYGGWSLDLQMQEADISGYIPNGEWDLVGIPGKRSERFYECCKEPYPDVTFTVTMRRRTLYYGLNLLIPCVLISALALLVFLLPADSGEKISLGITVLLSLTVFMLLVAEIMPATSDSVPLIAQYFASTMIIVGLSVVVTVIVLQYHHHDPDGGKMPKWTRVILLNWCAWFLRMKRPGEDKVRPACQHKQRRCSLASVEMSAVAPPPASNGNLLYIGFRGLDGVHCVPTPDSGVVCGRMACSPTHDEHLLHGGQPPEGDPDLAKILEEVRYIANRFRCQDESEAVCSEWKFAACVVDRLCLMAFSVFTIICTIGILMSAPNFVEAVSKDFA
T3 sequence (Q9UGM1 whole entry): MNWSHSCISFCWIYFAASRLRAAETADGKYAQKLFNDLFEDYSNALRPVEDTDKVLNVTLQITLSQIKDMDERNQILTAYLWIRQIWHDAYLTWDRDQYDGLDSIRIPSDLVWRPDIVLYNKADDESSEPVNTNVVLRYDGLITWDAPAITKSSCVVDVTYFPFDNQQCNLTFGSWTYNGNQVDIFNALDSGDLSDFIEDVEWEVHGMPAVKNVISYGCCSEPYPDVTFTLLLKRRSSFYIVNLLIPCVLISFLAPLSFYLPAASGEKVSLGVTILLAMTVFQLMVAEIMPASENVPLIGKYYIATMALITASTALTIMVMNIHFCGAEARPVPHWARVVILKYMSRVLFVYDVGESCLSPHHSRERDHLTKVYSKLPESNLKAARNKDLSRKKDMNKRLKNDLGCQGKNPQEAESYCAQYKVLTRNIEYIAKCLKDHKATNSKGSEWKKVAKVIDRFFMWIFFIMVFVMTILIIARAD
Neuronal acetylcholine receptor; alpha9/alpha10, sequence (Q9UGM1 whole entry): as above
Neuronal acetylcholine receptor; alpha9/alpha10, sequence (Q9GZZ6 whole entry): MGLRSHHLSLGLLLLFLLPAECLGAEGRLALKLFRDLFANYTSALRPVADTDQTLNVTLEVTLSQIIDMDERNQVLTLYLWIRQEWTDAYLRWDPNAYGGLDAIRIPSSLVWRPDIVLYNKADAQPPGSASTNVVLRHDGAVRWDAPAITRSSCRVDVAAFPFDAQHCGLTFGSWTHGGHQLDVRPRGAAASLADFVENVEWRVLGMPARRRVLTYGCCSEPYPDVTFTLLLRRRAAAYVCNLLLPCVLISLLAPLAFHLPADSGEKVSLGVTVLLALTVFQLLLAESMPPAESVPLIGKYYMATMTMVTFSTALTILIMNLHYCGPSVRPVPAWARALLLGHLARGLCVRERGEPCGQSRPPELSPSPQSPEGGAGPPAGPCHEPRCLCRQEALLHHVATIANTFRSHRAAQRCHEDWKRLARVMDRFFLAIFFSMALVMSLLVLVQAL

| SMILES | fold change (FC) [1] | fold change (FC) [2] | fold change (FC) [4] | fold change (FC) [5] | fold change (FC) (Oocyte [6]) | Activity [7] [%] | Activity (Oocyte [9]) [%] | fold change (FC) [10] | Activity [11] [%] | fold change (FC) [16] | also measured |
| --- | --- | --- | --- | --- | --- | --- | --- | --- | --- | --- | --- |
| CC[N+]1(CC)CCN(c2ccc(NC(=O)c3cccc(C)n3)cc2)CC1 | 31.8 | 0.415 | 1.24 | 0.14 | 0.38 | < 1 | < 1 | 1.07 | < 1 |  | Ratio [3]: 227; fold change (FC) [8]: 0.53 |
| C[C@H]1O[C@@H](O[C@H]2[C@@H](O)C[C@H](O[C@H]3[C@@H](O)C[C@H](O[C@H]4CC[C@@]5(C)[C@H](CC[C@@H]6[C@@H]5C[C@@H](O)[C@]5(C)[C@@H](C7=CC(=O)OC7)CC[C@]65O)C4)O[C@@H]3C)O[C@@H]2C)C[C@H](O)[C@@H]1O [DIGOXIN] |  |  |  |  |  |  |  |  |  |  | Papp [12]: 5.4 10^-6 cm/s |
| CC[N+]1(CC)CCN(c2ccc(C#N)cc2)CC1 |  |  |  |  |  |  |  |  |  |  | EC50 [13]: 2570 nM; EC50 [14]: 368 nM; fold change (FC) [15]: 0.94 |
| Cc1cccc(NC(=O)c2ccc(N3CC[N+](C)(C)CC3)cc2)n1 | 0.16 | 0.838 |  | 0.57 | 0.709 | < 1 | < 1 | 0.912 | < 1 | 0.89 | fold change (FC) [17]: 0.51 |
| CC[N+]1(C)CCN(c2ccc(NC(=O)c3cccc(C)n3)cc2)CC1.[I-] | 111 | 0.659 | 1.01 | 0.41 | 0.558 | < 1 | < 1 | 1.05 | < 1 | 1.04 | Activity (Mus musculus [18]): Active; Papp [19]: 2.8 10^-6 cm/s; Activity (Mus musculus [20]): Active; Papp [21]: 2.5 10^-6 cm/s; Activity (Mus musculus [22]): Active; Stability [23]: Stable; Activity (Mus musculus [24]): Active; Activity (Mus musculus [25]): Active; Activity (Mus musculus [26]): inactive; Papp [27]: 3 10^-6 cm/s; Papp [28]: 3.1 10^-6 cm/s; Activity (Mus musculus [29]): inactive; Papp [30]: 2.4 10^-6 cm/s; Activity (THP-1 [31]): inactive; PPB [32]: 54%; Activity (Mus musculus [33]): Active; Activity [34]: Non-Toxic; Papp [35]: 2.9 10^-6 cm/s; Stability [36]: > 90%; Activity (THP-1 [37]): Non-Toxic |
